Reference: patent US7615361B2, “Toxicity screening methods” (Ceetox, Inc., priority 2006, dated 2009)

Tests used:
H4IIE cells = test: Intracellular total glutathione (GSH); type: cell-based, rat; conditions: rat, 24 h
Method in brief: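 Rat hepatoma H4IIE cells were exposed to compound in dosing solutions made in complete culture medium, then harvested for biochemical measurement of intracellular total glutathione as an oxidative-stress marker. Values are exposure-group means, n=3-7.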

[1] = test system: H4IIE tumor cells, NRK cells, rat primary hepatocytes; test: Anti-tumor screen in three rat cell types; type: cell-based
Description: In the Anti-tumor screen of the present invention, at least three different cell types are utilized: (1) tumor derived cells, (2) proliferating cells from normal tissue, and (3) non-proliferating cells from normal tissue. The evaluation of anti-tumor agents in multiple cell types provides information on mechanism-based toxicity versus efficacy.
The anti-tumor agent can be evaluated in a toxicity screen of key biochemical functions (as described in detail herein above), with emphasis placed on cell proliferation assays as well as biochemical function and cell viability. Comparisons can then be made to quantitative markers in the concentration response curves constructed with the toxicity data.
It is hypothesized to act through mitochondrial toxicity as well as apoptosis.

rat cardiomyocytes [2] = test: MemTox membrane leakage (AK / α-GST); type: cell-based; conditions: rat, 24 hr
Method in brief: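 Neonatal rat cardiomyocytes were dosed, and the culture medium was collected at the end of exposure to measure total leaked adenylate kinase (luminescence) and/or α-GST (ELISA, 450/650 nm). Percent dead cells was set against 1 mM digitonin as maximum release, then converted to percent live. Values are means of n=3-7.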

rat cardiomyocytes [3] = test: Intracellular total glutathione (GSH); type: cell-based; conditions: rat cardiomyocytes, after 3 hr
Method in brief: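 Intracellular total glutathione serves as an oxidative-stress marker in neonatal rat cardiomyocytes exposed to compound in vitro. Cells were harvested for biochemical analysis, and values are means of each exposure group (n=3-7).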

[4] = Cell number (propidium iodide); type: cell-based; conditions: neonatal rat cardiomyocytes; rat cardiomyocytes (CM), 24 HR exposure; read-out: Cell Number TC50
Protocol: One test compound (Compound A) was received as dry powder and evaluated for potential cytotoxicity in a battery of in vitro assays. The compound was tested using both rat cardiomyocytes (CM) from rat neonates and a rat hepatoma (H4IIE) cell line. […] Camptothecin and rotenone were included as positive control compounds. The cell supernatant or the cells themselves were harvested for biochemical analysis. General cytotoxicity was evaluated by monitoring membrane integrity, mitochondrial function, cell proliferation, oxidative stress, and apoptosis. In addition, interaction with P-glycoprotein (PgP) on H4IIE cells and solubility of the test compound were also assessed. The means of each exposure group (n=3-7) were calculated for each assay performed. Intra assay variation well-to-well was typically less than 10% with plate to plate variation typically less than 20%.
Cell Proliferation: Cell proliferation in each well was measured with propidium iodide (PI). […] The 15 nm shift enhances PI fluorescence approximately 20 times while the excitation maxima are shifted 30-40 nm. During method development experiments, it was determined that Triton-X-100 was the best solution to permeabilize the H4IIE cells thereby allowing the PI access to intracellular RNA and DNA. Fluorescence was measured using a Packard Fusion plate reader or equivalent reader at 540 nm excitation and 610 nm emission. […]

[5] = MemTox membrane leakage (AK / α-GST); type: cell-based; conditions: human, HUVEC, read-out: MemTox TC50
Protocol: Membrane Leakage (α-Glutathione S-transferase and/or Adenylate Kinase): The presence of Adenylate Kinase (AK) or α-Glutathione S-transferase (α-GST), both enzyme leakage markers, was measured in the culture medium using an activity assay for Adenylate Kinase and/or an ELISA assay for α-GST. At the end of the exposure period, the medium covering the cells in each well was removed and placed into new 96-well plates with appropriate labeling. […] Luminescence (AK) values were measured with a Packard Fusion or equivalent plate reader, and absorbance (α-GST) values were measured with a Packard SpectraCount™ or equivalent reader at 450 nm and reference absorbance at 650 nm.
Membrane Leakage (α-Glutathione S-transferase and/or Adenylate Kinase): Leakage of Adenylate Kinase or α-GST from the cell into the culture medium was determined by collecting the culture medium at the end of the exposure period. Thus, the values measured represent total enzyme leakage lost over the exposure period. The control for 100% dead or maximum enzyme release was based on cells treated with 1 mM digitonin at the time of dosing. Percent dead cells relative to digitonin treated cells was determined and then subtracted from 100% to yield the percent live cells.
Dosing solutions were prepared in complete culture medium.

| Structure (SMILES) | CC50 (H4IIE cells) [µM] | sensitivity of cell types in the anti-tumor screen [1] | more potent in the heart cells than in liver cells (cell death as marker) (rat cardiomyocytes [2]) | cellular GSH depleted (rat cardiomyocytes [3]) | CC50 at 24 h [4] [µM] | CC50 at 24 h [5] [µM] |
| --- | --- | --- | --- | --- | --- | --- |
| COc1cccc2c1C(=O)c1c(O)c3c(c(O)c1C2=O)C[C@@](O)(C(=O)CO)C[C@@H]3O[C@H]1C[C@H](N)[C@H](O)[C@H](C)O1 [ADRIAMYCIN, Adriamycin] | 48 | toxic to all of the cells tested | about 2.5 fold | More than 90% |  |  |
| CC[C@@]1(O)C(=O)OCc2c1cc1n(c2=O)Cc2cc3ccccc3nc2-1 [CAMPTOTHECIN, Camptothecin] |  |  |  |  | 293 | 13 |
